Reference: US20240067693A1, “POLYPEPTIDES AND USES THEREOF” (MEDIMMUNE LIMITED, priority 2020, published 2024)
Numbered stars: 1 amine (or outer) side, 2 acyl side, 3 side chain; on linkers, the order of the positions; unused ones are H or OH. Bridge positions count the residues as written; N and C are the ends. Square brackets hold non-standard residues; d marks the D form. Side chains are listed from the residue outwards. Peptide text beside a SMILES is read from it. * marks the point of attachment. C18 diacid = O=C(O)CCCCCCCCCCCCCCCCC(=O)*; γGlu = O=C(O)[C@H](CCC(=O)[*:2])N[*:1]; Aib = CC(C)(N)C(=O)O

Key:
[1] = biological target: T1, human calcitonin receptor (hCTR) (Homo sapiens, UniProt P30988); assay: cAMP production in 1321N1 cells with stable recombinant expression of human calcitonin receptor (hCTR); assay type: cell-based; conditions: cAMP, 1321N1 cells, assay buffer with 0.1% BSA; read-out: EC50 (pM) hCTR
T1 construct: expressed in transfected cells
T1 sequence (P30988 25-474): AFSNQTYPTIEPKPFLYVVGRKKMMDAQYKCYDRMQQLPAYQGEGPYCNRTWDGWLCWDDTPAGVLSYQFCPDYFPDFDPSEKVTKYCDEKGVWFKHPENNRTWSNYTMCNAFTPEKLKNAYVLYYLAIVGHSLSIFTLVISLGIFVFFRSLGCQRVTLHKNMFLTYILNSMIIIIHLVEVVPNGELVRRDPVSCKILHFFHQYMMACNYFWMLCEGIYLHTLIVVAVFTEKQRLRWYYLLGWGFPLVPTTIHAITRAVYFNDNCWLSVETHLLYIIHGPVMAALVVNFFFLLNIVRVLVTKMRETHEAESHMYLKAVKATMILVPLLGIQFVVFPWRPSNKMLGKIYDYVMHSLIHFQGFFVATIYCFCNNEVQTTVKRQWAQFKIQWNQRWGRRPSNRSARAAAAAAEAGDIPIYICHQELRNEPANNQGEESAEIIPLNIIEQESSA
In short: (§1)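 Receptor-expressing cells (human receptors in 1321N1, rat receptors in HEK) incubated 30 min at room temperature with peptide in HBSS/HEPES pH 7.4, 0.1% BSA, 0.5 mM IBMX. cAMP read by HTRF; EC50 from 4-parameter fit as % of maximal amylin or calcitonin response.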

[2] = biological target: T2, human amylin receptor (calcitonin receptor co-expressed with receptor activity modifying protein, RAMP3) (hAMYR3) (Homo sapiens, UniProt O60896+P30988); assay: cAMP production in 1321N1 cells with stable recombinant expression of human amylin receptor (hAMYR3); assay type: cell-based; conditions: for Ratio (selectivity hAMYR vs hCTR, ratio of EC50 values at the two receptors): EC50 hCTR / EC50 hAMYR3; for EC50: cAMP, 1321N1 cells, assay buffer with 0.1% BSA, read-out: EC50 (pM) hAMYR3
T2 construct: expressed in transfected cells
T2 sequence (P30988 25-474): T1 sequence (P30988 25-474)
T2 sequence (O60896 24-148 partner): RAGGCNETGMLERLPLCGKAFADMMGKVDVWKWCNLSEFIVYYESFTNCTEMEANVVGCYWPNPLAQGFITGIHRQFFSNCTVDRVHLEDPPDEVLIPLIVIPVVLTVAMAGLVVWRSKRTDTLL
In short: as §1

SMILES | EC50 [1] [pM] | Ratio (selectivity hAMYR vs hCTR, ratio of EC50 values at the two receptors) [2] | EC50 [2] [pM]
CC[C@H](C)[C@H](NC(=O)[C@@H]1CCCN1C(=O)CNC(=O)[C@H](Cc1ccccc1)NC(=O)[C@H](CC(N)=O)NC(=O)[C@H](CCCNC(=N)N)NC(=O)[C@H](CO)NC(=O)[C@H](CO)NC(=O)[C@H](Cc1c[nH]cn1)NC(=O)C(C)(C)NC(=O)[C@H](CC(C)C)NC(=O)[C@H](Cc1ccccc1)NC(=O)[C@H](CC(N)=O)NC(=O)[C@H](C)NC(=O)[C@H](CC(C)C)NC(=O)[C@H](CCCNC(=N)N)NC(=O)[C@H](CCC(N)=O)NC(=O)[C@@H](NC(=O)[C@H](C)NC(=O)[C@@H]1CSSC[C@H](NC(=O)[C@H](CCCCN)NC(=O)[C@@H](N)CCCCNC(=O)CC[C@H](NC(=O)CCCCCCCCCCCCCCCCC(=O)O)C(=O)O)C(=O)N[C@@H](CC(N)=O)C(=O)N[C@@H]([C@@H](C)O)C(=O)N[C@@H](C)C(=O)N[C@@H]([C@@H](C)O)C(=O)N1)[C@@H](C)O)C(=O)N[C@@H](CC(C)C)C(=O)N1CCC[C@H]1C(=O)N1CCC[C@H]1C(=O)N[C@H](C(=O)N[C@@H](CC(N)=O)C(=O)N[C@H](C(=O)NCC(=O)N[C@@H](CO)C(=O)N[C@@H](CC(N)=O)C(=O)N[C@H](C(=O)N[C@@H](Cc1ccc(O)cc1)C(N)=O)[C@@H](C)O)C(C)C)[C@@H](C)O [Peptide 137] (H-K([γGlu-C18 diacid])KCNTATCATQRLANFL[Aib]HSSRNFGPILPPTNVGSNTY-NH2; disulfide 3-8; N-terminus assumed) | 1500 | 6.3 | 238
CC[C@H](C)[C@H](NC(=O)[C@@H]1CCCN1C(=O)CNC(=O)[C@H](Cc1ccccc1)NC(=O)[C@H](CC(N)=O)NC(=O)C(C)(C)NC(=O)[C@H](CO)NC(=O)[C@H](CO)NC(=O)[C@H](Cc1c[nH]cn1)NC(=O)[C@@H](NC(=O)[C@H](CC(C)C)NC(=O)[C@H](Cc1ccccc1)NC(=O)[C@H](CC(N)=O)NC(=O)[C@H](C)NC(=O)[C@H](CC(C)C)NC(=O)[C@H](CCCNC(=N)N)NC(=O)[C@H](CCC(N)=O)NC(=O)[C@@H](NC(=O)[C@H](C)NC(=O)[C@@H]1CSSC[C@H](NC(=O)[C@H](CCCCN)NC(=O)[C@@H](N)CCCCNC(=O)CC[C@H](NC(=O)CCCCCCCCCCCCCCCCC(=O)O)C(=O)O)C(=O)N[C@@H](CC(N)=O)C(=O)N[C@@H]([C@@H](C)O)C(=O)N[C@@H](C)C(=O)N[C@@H]([C@@H](C)O)C(=O)N1)[C@@H](C)O)C(C)C)C(=O)N[C@@H](CC(C)C)C(=O)N1CCC[C@H]1C(=O)N1CCC[C@H]1C(=O)N[C@H](C(=O)N[C@@H](CC(N)=O)C(=O)N[C@H](C(=O)NCC(=O)N[C@@H](CO)C(=O)N[C@@H](CC(N)=O)C(=O)N[C@H](C(=O)NC(C)(C)C(N)=O)[C@@H](C)O)C(C)C)[C@@H](C)O [Peptide 85, K(γE-C18diacid)K[CNTATC]ATQRLANFLVHSS(Aib)NFGPILPPTNVGSNT(Aib)-amide] (H-K([γGlu-C18 diacid])KCNTATCATQRLANFLVHSS[Aib]NFGPILPPTNVGSNT[Aib]-NH2; disulfide 3-8; N-terminus assumed) | 3100 | 4 | 806
CC[C@H](C)[C@H](NC(=O)[C@@H]1CCCN1C(=O)CNC(=O)[C@H](Cc1ccccc1)NC(=O)[C@H](CC(N)=O)NC(=O)[C@H](CO)NC(=O)[C@H](CO)NC(=O)[C@H](CO)NC(=O)[C@H](Cc1c[nH]cn1)NC(=O)C(C)(C)NC(=O)[C@H](CC(C)C)NC(=O)[C@H](Cc1ccccc1)NC(=O)[C@H](CC(N)=O)NC(=O)[C@H](C)NC(=O)[C@H](CC(C)C)NC(=O)[C@H](CCCNC(=N)N)NC(=O)[C@H](CCC(N)=O)NC(=O)[C@@H](NC(=O)[C@H](C)NC(=O)[C@@H]1CSSC[C@H](NC(=O)[C@H](CCCCN)NC(=O)[C@@H](N)CCCCNC(=O)CC[C@H](NC(=O)CCCCCCCCCCCCCCCCC(=O)O)C(=O)O)C(=O)N[C@@H](CC(N)=O)C(=O)N[C@@H]([C@@H](C)O)C(=O)N[C@@H](C)C(=O)N[C@@H]([C@@H](C)O)C(=O)N1)[C@@H](C)O)C(=O)N[C@@H](CC(C)C)C(=O)N1CCC[C@H]1C(=O)N1CCC[C@H]1C(=O)N[C@H](C(=O)N[C@@H](CC(N)=O)C(=O)N[C@H](C(=O)NCC(=O)N[C@@H](CO)C(=O)N[C@@H](CC(N)=O)C(=O)N[C@H](C(=O)N[C@@H](Cc1ccc(O)cc1)C(N)=O)[C@@H](C)O)C(C)C)[C@@H](C)O [Peptide 133] (H-K([γGlu-C18 diacid])KCNTATCATQRLANFL[Aib]HSSSNFGPILPPTNVGSNTY-NH2; disulfide 3-8; N-terminus assumed) | 2580 | 6.8 | 378
CC[C@H](C)[C@H](NC(=O)[C@@H]1CCCN1C(=O)CNC(=O)[C@H](Cc1ccccc1)NC(=O)[C@H](CC(N)=O)NC(=O)C(C)(C)NC(=O)[C@H](CO)NC(=O)[C@H](CO)NC(=O)[C@H](Cc1c[nH]cn1)NC(=O)[C@H](CCCNC(=N)N)NC(=O)[C@H](CC(C)C)NC(=O)[C@H](Cc1ccccc1)NC(=O)[C@H](CC(N)=O)NC(=O)[C@H](C)NC(=O)[C@H](CC(C)C)NC(=O)[C@H](CCCNC(=N)N)NC(=O)[C@H](CCC(N)=O)NC(=O)[C@@H](NC(=O)[C@H](C)NC(=O)[C@@H]1CSSC[C@H](NC(=O)[C@@H](N)CCCCNC(=O)CC[C@H](NC(=O)CC[C@H](NC(=O)CCCCCCCCCCCCCCCCC(=O)O)C(=O)O)C(=O)O)C(=O)N[C@@H](CC(N)=O)C(=O)N[C@@H]([C@@H](C)O)C(=O)N[C@@H](C)C(=O)N[C@@H]([C@@H](C)O)C(=O)N1)[C@@H](C)O)C(=O)N[C@@H](CC(C)C)C(=O)N1CCC[C@H]1C(=O)N1CCC[C@H]1C(=O)N[C@H](C(=O)N[C@@H](CCCNC(=N)N)C(=O)N[C@H](C(=O)NCC(=O)N[C@@H](CO)C(=O)N[C@@H](CC(N)=O)C(=O)N[C@H](C(=O)N[C@@H](Cc1ccc(O)cc1)C(N)=O)[C@@H](C)O)C(C)C)[C@@H](C)O [Peptide 77, K(γE-γE-C18diacid)[CNTATC]ATQRLANFLRHSS(Aib)NFGPILPPTRVGSNTY-amide] (H-K([γGlu-γGlu-C18 diacid])CNTATCATQRLANFLRHSS[Aib]NFGPILPPTRVGSNTY-NH2; disulfide 2-7; N-terminus assumed) | 2520 | 11 | 231
CC[C@H](C)[C@H](NC(=O)[C@@H]1CCCN1C(=O)CNC(=O)[C@H](Cc1ccccc1)NC(=O)[C@H](CC(N)=O)NC(=O)C(C)(C)NC(=O)[C@H](CO)NC(=O)[C@H](CO)NC(=O)[C@H](Cc1c[nH]cn1)NC(=O)[C@@H](NC(=O)[C@H](CC(C)C)NC(=O)[C@H](Cc1ccccc1)NC(=O)[C@H](CC(N)=O)NC(=O)[C@H](C)NC(=O)[C@H](CC(C)C)NC(=O)[C@H](CCCNC(=N)N)NC(=O)[C@H](CCC(N)=O)NC(=O)[C@@H](NC(=O)[C@H](C)NC(=O)[C@@H]1CSSC[C@H](NC(=O)[C@@H](N)CCCCNC(=O)CC[C@H](NC(=O)CC[C@H](NC(=O)CCCCCCCCCCCCCCCCC(=O)O)C(=O)O)C(=O)O)C(=O)N[C@@H](CC(N)=O)C(=O)N[C@@H]([C@@H](C)O)C(=O)N[C@@H](C)C(=O)N[C@@H]([C@@H](C)O)C(=O)N1)[C@@H](C)O)C(C)C)C(=O)N[C@@H](CC(C)C)C(=O)N1CCC[C@H]1C(=O)N1CCC[C@H]1C(=O)N[C@H](C(=O)N[C@@H](CCC(=O)O)C(=O)N[C@H](C(=O)NCC(=O)N[C@@H](CO)C(=O)N[C@@H](CC(N)=O)C(=O)N[C@H](C(=O)N[C@@H](Cc1ccc(O)cc1)C(N)=O)[C@@H](C)O)C(C)C)[C@@H](C)O [Peptide 49, K(γE-γE-C18diacid)[CNTATC]ATQRLANFLVHSS(Aib)NFGPILPPTEVGSNTY-amide] (H-K([γGlu-γGlu-C18 diacid])CNTATCATQRLANFLVHSS[Aib]NFGPILPPTEVGSNTY-NH2; disulfide 2-7) | 4140 | 12 | 334
